15 compounds from patent US6599917B1, “Quinuclidine compounds and drugs containing the same as the active ingredient” (priority 1999, dated 2003) can be followed below.

The test system of assay [1] is cholesterol biosynthesis. As to the kind of experiment: Measurement of cholesterol biosynthesis inhibitive activity in a rat. To be noted: male SD rat, oral, inhibition rate to control group; for inhibition in vivo at 3 mg/kg / Cholesterol biosynthesis inhibitive activity inhibition (%): dose 3 mg/kg. The class given is in vivo. How it is done: Measurement of Cholesterol Biosynthesis Inhibitive Activity in a Rat
(I) An SPF grade male SD rat (4 weeks age, SLC) was bred for more than one week in a day-night-reversal room and subjected to an experiment made in the daytime. The compound dissolved in a 2% Tween 80 solution was administered (5 ml/kg) to the rat using an oral sonde. After one hour, a [1-^14C]Acetic acid, sodium salt (1.67-2.22 GBq/mmol, 37 MBq/ml, NEN) prepared by diluting to 1.85 MBq/ml by using physiological saline was intraabdominally administered (300 μ1/animal). After one hour, the rat was anesthetized by diethyl ether to carry out exsanguination from the aorta abdominalis. The collected blood was centrifuged at 3000 rpm for 10 minutes to prepare blood plasma.
(II) 1 ml of 4N KOH and 1 ml of ethanol were added to 2 ml of the blood plasma, which was then incubated at 65° C. for one hour and there after, 3 ml of petroleum ether was added. The plasma was shaken for 30 minutes. After the water phase was separated from the organic phase by centrifugation, it was frozen at −80° C. and the radiative activity of the organic phase was measured using a liquid scintillation counter. Or the organic phase was evaporated to dryness using nitrogen gas and the residue was dissolved as a marker in 25 µl of chloroform containing squalene, farnesol and cholesterol. This sample was applied to a TCL plate (Merck) and developed using toluene and isopropyl ether (1:1) for 15 to 20 minutes. A band of cholesterol was cut from the plate to measure the radiative activity by using a liquid scintillation counter. The cholesterol biosynthesis inhibition activity was expressed by an inhibition rate (%) to a control group.

Assay [2] has as its target T1, squalene synthesizing enzyme (Rattus norvegicus, UniProt Q02769).
T1 construct: The liver was excised from a male Spraugue-Dawly rat; from tissue; host or cells: liver microsome fraction of male Sprague-Dawley rat (8 to 9 weeks)
T1 sequence (Q02769 1-416): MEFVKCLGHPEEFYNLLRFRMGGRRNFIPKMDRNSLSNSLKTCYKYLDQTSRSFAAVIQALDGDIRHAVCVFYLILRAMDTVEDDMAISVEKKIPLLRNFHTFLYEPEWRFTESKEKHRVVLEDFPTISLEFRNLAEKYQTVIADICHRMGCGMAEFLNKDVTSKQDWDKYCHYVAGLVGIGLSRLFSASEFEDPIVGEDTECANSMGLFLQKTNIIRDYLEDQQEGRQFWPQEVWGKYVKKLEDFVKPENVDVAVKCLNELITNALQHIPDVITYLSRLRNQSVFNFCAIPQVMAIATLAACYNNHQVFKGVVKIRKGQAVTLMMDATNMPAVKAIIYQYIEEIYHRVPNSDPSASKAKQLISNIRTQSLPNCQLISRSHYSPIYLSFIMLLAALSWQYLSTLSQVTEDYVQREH
The assay can be described thus: Measurement of squalene synthesizing enzyme inhibitive activity by using a rat liver microsome. The format is biochemical. To be noted: [3H]-farnesylpyrophosphoric acid. How it is done: Measurement of Squalene Synthesizing Enzyme Inhibitive Activity by Using a Rat Liver Microsome
(I) The reaction was run on a scale of 500 μ1. 200 µl of a solution containing 125 mM tris-hydrochloric acid (pH: 7.3), 2.5 mM magnesium chloride, 5 mM potassium fluoride and 10 mM reduction type nicotinamidoadenine dinucleotide phosphoric acid, 100 µl of the specimen solution with a 5-fold concentration, 100 µl of distilled water and 50 µl of 0.4 to 1 mg/ml rat liver microsome prepared by the following method were mixed.
(II) The above mixture was pre-incubated at 37° C. for 10 minutes and thereafter, 50 µl of 100 μM [^3H]-farnesylpyrophosphoric acid (30 mCi/mmol, NEN) was added to the mixture to start a reaction. The reaction was continued at 37° C. for 10 minutes. 1 ml of ethanol was added to the resulting mixture to terminate the reaction and then 1 ml of distilled water and 3 ml of petroleum ether were added to the reaction solution, which was then shaken for 30 minutes. The water phase was separated from the oil phase, the water phase was frozen at −70° C. in dry ice/methanol and the radiative activity of the organic phase was measured using a liquid scintillator. Or the organic phase was evaporated to dryness using nitrogen gas and the residue was dissolved as a marker in 25 µl of chloroform containing squalene, farnesol and cholesterol. This sample was spotted on a TCL plate (Merck) and developed using heptane for 15 to 20 minutes. A band of squalene was cut from the plate to measure the radiative activity by using a liquid scintillation counter. The data was expressed by a concentration (IC50) at which 50% of the radiative activity of a control group was inhibited.
Method of the Preparation of a Rat Liver Microsome
The following operations were all carried out on ice and the centrifugation was performed at 4° C. The liver was excised from a male Spraugue-Dawly rat (hereinafter referred to as SD rat) (8 to 9 weeks age) and perfused with 1.15% potassium chloride to remove the blood. Then, the liver was minced using a forceps and the minced liver was homogenized using a Teflon homogenizer. The resulting sample was centrifuged at 16000×g twice for 15 minutes. The supernatant was further centrifuged at 105000×g for 60 minutes. The obtained deposit was determined as a microsome fraction, which was then suspended in a 25 mM tris-hydrochloric acid solution. The concentration of protein was measured quantitatively by a Bradford method and the concentration of protein was adjusted to 20 mg/ml by using the same solution. The resulting solution was stored at […].

Assay [3] has as its system triglyceride biosynthesis. As to the kind of experiment: Measurement of triglyceride biosynthesis inhibitive activity in a rat liver cell. The class given is cell-based. The conditions noted are these: for inhibition at 1 µM: Rattus norvegicus, 6 h, read-out: Triglyceride biosynthesis inhibitive activity inhibition in 1 μM of the specimen. As for the experimental part:
(§1) Measurement of Cholesterol and Triglyceride Biosynthesis Inhibitive Activities in a Rat Liver Cell
(§2) A liver cell was isolated from a male SD rat according to a usual method (collagenase perfusion method) and subjected to an experiment.
(§3) The isolated liver cells were planted in an amount of 500 μ1 every well on a Type collagen coated 24 well plate (cell density: 4×10^5 cell/ml). As the cell culture solution, a Williams'E medium (adjusted to pH 7.4) containing 10% FCS, 1 μM insulin, 1 μM dexamethasone, 100 units/ml penicillin and 10 μg/ml streptomycin was used. After the liver cells were incubated in a CO2 incubator for 2 hours, unstuck cells were removed and the liver cells were further incubated overnight.
(§4) After the culture medium was exchanged, the specimen diluted in a 10% DMSO-90% cell culture solution was added to each well in an amount of 5 μ1. DMSO (final concentration: 0.1%) was added to a control group. A [1-^14C]Acetic acid, sodium salt (5 μCi/well) was added to the media 10 minutes and 4 hours after the specimen was added for the measurement of cholesterol synthesis inhibitive action and for the measurement of triglyceride synthesis inhibitive action respectively, followed by culturing for further 2 hours.
(§5) After the cultivation was finished, the supernatant was removed and the cells were washed using PBS(−)(Phosphate buffered saline (Ca^2+, Mg^2+free) twice. Hexane/isopropyl alcohol (3:2, v/v) was added to the cells and the cells were then allowed to stand for 10 minutes to extract intracellular lipid. The extract was transferred to a glass tube and exsiccated under a nitrogen gas stream. Further, the exsiccated extract was washed with 25 mL of petroleum ether and then dissolved in petroleum ether containing the following components: 0.01% squalene, 0.3% free cholesterol, 0.3% cholesterol acetate, 0.1% triolein, 0.01% farnesol and 0.3% lanosterol.
(§6) The resulting solution was spotted on a TLC plate to perform an isolating operation. The spotted solution was developed for 10 minutes by using toluene/isopropyl ether (1:1, v/v) as the solvents and for further 15 minutes by using heptane in place of the above solvent after it was dried using air.
(§7) After the development was finished, the TLC plate was subjected to iodine color development. After each position of free cholesterol and triolein which were used as standards was confirmed, the image of the TLC plate was transferred to a BAS 2000 (Fuji Film) imaging plate by exposure performed for 16 hours. This transferred image was analyzed using a BAS 2000 IP Reader and an Imaging analyzer II to measure radiative activities contained in the free cholesterol and triglyceride fractions.
(§8) The cholesterol biosynthesis inhibitive activity was expressed by a concentration (IC50) at which 50% of the radiative activity of the control group was inhibited and the triceride biosynthesis inhibitive activity was expressed by an inhibition rate (%) to the control group.

For assay [4], the system named is cholesterol biosynthesis. As to the kind of experiment: Measurement of cholesterol biosynthesis inhibitive activity in a rat liver cell. The class given is cell-based. The conditions noted are these: isolated rat liver cells, [1-14C]acetic acid added 10 minutes after the specimen. As for the experimental part: as §1, §2, §3, §4, §5, §6, §7, §8

In turn, `CO[C@@H]1CN(c2ccc(C#C[C@@]3(O)CN4CCC3CC4)c(Cc3ccccc3)n2)C[C@H]1OC` [Example 104, (3R)-3-[2-Benzyl-6-[(3R,4R)-3,4-dimethoxypyrrolidine-1-yl)-3-pyridyl]ethynyl-3-quinuclidinol] yielded an inhibition in vivo at 2 mg/kg in the assay with cholesterol biosynthesis [1] (2 h, dose 2 mg/kg) of 88%. Besides, the half-maximal inhibitory concentration (IC50) in assay [2] was found to be 6.7 nM.

For the compound `CO[C@H]1CN(c2ccc(C#C[C@@]3(O)CN4CCC3CC4)c(Cc3ccccc3)n2)C[C@H]1O` [Example 106, (3R)-3-[2-Benzyl-6-[(3R,4S)-3-hydroxy-4-methoxypyrrolidine-1-yl)-3-pyridyl]ethynyl-3-quinuclidinol], in assay [3], the inhibition at 1 µM amounted to 81%. This compound displayed an IC50 in assay [2] of 6.9 nM.

Take `CO[C@@H]1CN(c2ccc(C#C[C@@]3(O)CN4CCC3CC4)c(Cc3ccccc3)n2)C[C@@H]1F` [Example 110]: the inhibition at 1 µM in assay [3] is 84%. The compound also showed a half-maximal inhibitory concentration (IC50) in assay [2] of 2.1 nM.

Turning to `CO[C@@H]1CN(c2nc(Cc3ccccc3)c(C#C[C@@]3(O)CN4CCC3CC4)cc2Cl)C[C@H]1O` [Example 116, (3R)-(3R)-3-[2-Benzyl-5-chloro-6[(3R,4R)-3-hydroxy-4-methoxypyrrolidine-1-yl]-3-pyridyl]ethynyl-3-quinuclidinol], the figures for the IC50 (with cholesterol biosynthesis [4] (10 min); in assay [2]) were 72 nM and 0.77 nM, respectively.

As to `CO[C@@H]1CN(c2nc(Cc3ccccc3)c(C#C[C@@]3(O)CN4CCC3CC4)cc2Br)C[C@H]1O` [Example 117, (3R)-3-[2-Benzyl-5-bromo-6-[(3R,4R)-3-hydroxy-4-methoxypyrrolidine-1-yl]-3-pyridyl]ethynyl-3-quinuclidinol], the IC50 in the assay on cholesterol biosynthesis [4] (10 min) is 79 nM; in assay [2], 4.5 nM.

As for `O=C1N(c2ccc(C#C[C@@]3(O)CN4CCC3CC4)c(Cc3ccccc3)n2)CCC12OCCO2` [Example 138, (3R)-3-[2-Benzyl-6-(3,3-ethylenedioxy-2-pyrrolidinone-1-yl)-3-pyridyl]ethynyl-3-quinuclidinol], the IC50 was 14 nM with cholesterol biosynthesis [4] (10 min) and 0.35 nM in assay [2].

In turn, `O=C1[C@H](O)CCN1c1ccc(C#C[C@@]2(O)CN3CCC2CC3)c(Cc2ccccc2)n1` [Example 142, (3R)-3-[2-Benzyl-6-[(3R)-3-hydroxy-2-pyrrolidinone-1-yl]-3-pyridyl]ethynyl-3-quinuclidinol] registered an inhibition in vivo at 3 mg/kg with cholesterol biosynthesis [1] (2 h) of 82%. In assay [2], the IC50 is 5 nM.

In turn, `COC(C)COc1ccc(C#C[C@@]2(O)CN3CCC2CC3)c(Cc2ccccc2)n1` (stereo partly drawn) [Example 148, (3R)-3-[2-Benzyl-6-(2-methoxypropyl)oxy-3-pyridyl]ethynyl-3-quinuclidinol] came in with a 50% inhibitory concentration (IC50) in the assay on cholesterol biosynthesis [4] (10 min) of 160 nM. The compound further displayed an inhibition in vivo at 3 mg/kg in the assay on cholesterol biosynthesis [1] (2 h) of 92%.

Turning to `COC(C)COc1ccc(C#C[C@]2(O)CN3CCC2CC3)c(Cc2ccccc2)n1` (stereo partly drawn) [Example 149, (3S)-3-[2-Benzyl-6-(2-methoxypropyl)oxy-3-pyridyl]ethynyl-3-quinuclidinol], the 50% inhibitory concentration (IC50) in the assay with cholesterol biosynthesis [4] (10 min) stood at 590 nM.

As for `OCCCOc1ccc(C#C[C@@]2(O)CN3CCC2CC3)c(Cc2ccccc2)n1` [Example 166, (3R)-3-[2-Benzyl-6-(3-hydroxypropyl)oxy-3-pyridyl]ethynyl-3-quinclidinol], the inhibition at 1 µM in assay [3] was found to be 82%. In assay [2], this compound showed an IC50 of 15 nM.

For the compound `COC(=O)CCC(=O)OCCCOc1ccc(C#CC2(O)CN3CCC2CC3)c(Cc2ccccc2)n1` (stereo not shown) [Example 168, 3-[2-Benzyl-6-[3-(3-methoxycarbonylpropanoyloxy)propyl]oxy-3-pyridyl]ethynyl-3-quinclidinol], the “Cholesterol biosynthesis inhibitive activity inhibition (%)” value in the assay with cholesterol biosynthesis [1] was 89%.

As to `C[C@H](NC(=O)OC(C)(C)C)C(=O)OCCCOc1ccc(C#CC2(O)CN3CCC2CC3)c(Cc2ccccc2)n1` (stereo partly shown) [Example 169, 3-[2-Benzyl-6-[3-[N-(tert-butoxycarbonyl)aranyloxy]propyl]oxy-3-pyridyl]ethynyl-3-quinuclidinol], the “Cholesterol biosynthesis inhibitive activity inhibition (%)” value in the assay with cholesterol biosynthesis [1] is on record as 92%.

For `O[C@]1(C#Cc2cnc(-c3cccnc3)cc2Cc2ccccc2)CN2CCC1CC2` [Example 176, (3R)-3-[4-Benzyl-2-(3-pyridyl)-5-pyridyl]ethynyl-3-quinuclidinol], in assay [3], the inhibition at 1 µM was determined as 74%.

`O[C@]1(C#Cc2cnc(C3=COCCO3)cc2Cc2ccccc2)CN2CCC1CC2` [Example 186, (3R)-3-[4-Benzyl-2-(1,4-dioxene-2-yl)-5-pyridyl]ethynyl-3-quinuclidinol] displayed a half-inhibitory concentration (IC50) in the assay with cholesterol biosynthesis [4] of 69 nM.

For “(3R)-3-[4-Benzyl-2-[(3R,4R)-3-hydroxy-4-methoxypyrrolidine-1-yl]-3-pyrimidyl]ethynyl-3-quinuclidinol [Example 201]”, the “Triglyceride biosynthesis inhibitive activity inhibition in 1 μM of the specimen” value in assay [3] (isolated rat liver cells, 1 μM of the specimen, [1-14C]acetic acid added 4 hours after the specimen, inhibition rate to control group) amounted to 85%. For the same compound, in assay [2], inhibition was half-maximal at 1.6 nM (IC50).
